Assay results taken from PMC11562788, “Insights into the Hierarchical Assembly of a Chemically Diverse Peptide Hydrogel Derived from Human Semenogelin I” (ACS Nano, 2024).
Values joined by “and” are separate entries in the source; they are usually repeats but may differ in a detail not shown here. Equal entries are not always repeated. “Also recorded” adds a separate entry of the source. Residues, ends and D or L forms follow the SMILES beside them.

Assays:
Format in all cases: physicochemical
[1] = Hydrogelation and gel appearance by visual inspection; details: for Colloidal stability / phase separation of the hydrogel: visual inspection after hydrogel preparation, pH/pD 8.0, 2.0 mM, ambient temperature
Method: All FTIR measurements were collected on samples where a trifluoroacetate (TFA^–) to chloride ion exchange was performed to eliminate signals from the TFA^– carbonyl moiety in the amide I spectral region (Figure S1). FTIR spectra were collected for P0–P5 in D2O at six pD values (3.0, 5.0, 7.0, 8.0, 9.0, and 10.0) (Figures S2–S7). FTIR analysis for P6–P8 was performed at a pD of 8.0 (Figures S8–S10). The bulk of FTIR studies were performed at pD 8.0, as the optimum pH range for hydrogelation is 7–9 for both SgI38–48[28] and P0.
(§1) All samples were prepared in nonstick Eppendorf tubes (Axygen, Inc.). Prior to the final sample preparation (for all FTIR samples and when otherwise stated), the TFA counteranions present in the peptide sample after HPLC purification were exchanged for chloride using the following protocol: lyophilized peptide was dissolved in deionized D2O (1.0 mL). HCl was added at a molar ratio of 13.7:1 HCl:peptide. For the Phe^CN mutants, the sample was divided into two groups and lyophilized. One sample was then redissolved in H2O (to avoid obscuring the O–D stretches in the nitrile region) and the other in D2O (to avoid overlapping of the O-H bending vibrations in the amide I region) to a final concentration of 2.0 mM, unless otherwise specified. All other peptide samples were redissolved in D2O. The exchange of TFA^– to chloride may be verified by a lack of signal at 1672 cm^–1, seen in the IR spectrum for the deuterium-exchanged TFA salt of P3, where the carbonyl signal from TFA is well separated from the amide I carbonyl high frequency stretch at 1684 cm^–1 (Figure S1). On the day of the peptide sample preparation, D2O was placed in an Eppendorf tube, was then used as background when collecting data points (0 h, 48 h, 1 week, etc.), and was assumed to absorb the same amount of H2O over time as the peptide sample prepared on the same day. The concentration of the peptide solutions was verified with the UV–vis absorbance peak at 280 nm using a molar absorptivity of 2560 M^–1 cm^–1 for all sequences (P0–P7). The pH/pD of the samples was then corrected to 8.0 using small volumes of NaOH and HCl (or NaOD and DCl). After attaining the desired pH/pD, samples were incubated at ambient temperature (ca. 22 °C) and followed over 7 days (or as specified) to allow for hydrogelation.

[2] = SAXS/WAXS of fibrils, elliptical cylinder model fit; details: for Fibril axis ratio / Fibril cross-sectional area / Fibril minor radius (minor semiaxis): SAXS, elliptical cylinder model fit, day 7 at 21 °C; for Fibril axis ratio / Fibril cross-sectional area / Fibril minor radius (minor semiaxis) / Repeated dimension of broad SAXS peak at q = 0.172 Å^–1: pH 8.0; for Repeated dimension of broad SAXS peak at q = 0.172 Å^–1: 7 days at 21 °C; for Repeat distance of sharp SAXS peak at q = 0.305 Å^–1: after 7 days of incubation at 21 °C
Method: Small- and wide-angle X-ray scattering (SAXS/WAXS) measurements were performed on a SAXSLabs Ganesha pinhole instrument (JJ X-ray System Aps) with an X-ray microsource (Xenocs) and a two-dimensional 300k Pilatus detector (Dectris Ltd., Switzerland). The wavelength, λ, used for all scattering experiments was 1.54 Å, and samples were measured at three sample-to-detector distances. All samples (200 μL) were loaded into a 1.5 mm diameter quartz capillary (Hilgenberg GmbH, Malsfeld, Germany), and the time-averaged scattering intensities were analyzed using a python code. The scattering intensity was corrected to an absolute scale by calibration against water. Supramolecular dimensions were extracted from SAXS data by using the SasView software and fitting the scattering curves to an elliptical-cylinder model (www.sasview.org).

[3] = FTIR amide I: β-sheet self-assembly; details: D2O, ambient temperature; for Persistence of the β-sheet structure over time by FTIR: 0 h to 1 week or longer, pH as in the words
Method: as §1
FT IR was performed with a Bruker Vertex 70 spectrometer with a photovoltaic mercury cadmium telluride (MTC) detector. Before the spectral collection, the MCT detector was cooled with liquid nitrogen. A background spectrum (see hydrogel sample preparation above) was collected (6 μL of H2O or D2O), and the collection chamber was purged for 15 min before 6 μL of sample was loaded in between two CaF2 windows and separated by a 50-μm Teflon spacer in a 25-mm diameter demountable liquid cell (Harrick Scientific). After purging again, the IR spectrum was collected with 512 scans, with a resolution of 2 cm^–1, from 900 cm^–1 to 4000 cm^–1 at time t = 0 h, 24 h, 48 h, and 1 week (and sometimes longer) after sample constitution, processed using OPUS spectroscopy software, and plotted with Origin or KaleidaGraph.

[4] = Oscillatory and flow rheology of hydrogels; details: for Change of storage modulus G′ over one week: 2.0 mM, pH 8.0, 24 h against 1 week at 21 °C; for Recovery of initial G′ within 2 min after strain-induced loss of gel character / Time to complete recovery of the initial G′: after flow curve deformation; for Recovery of initial G′ within 2 min after strain-induced loss of gel character / Time to complete recovery of the initial G′ / Strain above which gel character is lost (G″ > G′) / Strain up to which the gel is linearly viscoelastic / Angular frequency up to which G′ and G″ are frequency-independent: hydrogel after 1 week, 25 °C; for Strain above which gel character is lost (G″ > G′) / Strain up to which the gel is linearly viscoelastic: amplitude sweep 0.01–100% strain; for Slope of viscosity against shear rate (shear thinning): flow curve, hydrogel after 1 week at ambient temperature, measured at 25 °C; for Angular frequency up to which G′ and G″ are frequency-independent: frequency sweep 0.1–100 rad/s
Method: Rheology measurements were performed on an Anton Paar Physica MCR 301 instrument using a CP25-1 (diameter of 25 mm, angle of 1°) cone plate. A water trap was installed to prevent sample evaporation, and then, sample, 150–200 μL, was carefully plated on to the rheometer stage with a tipless 1 mL syringe to minimize gel deformation. Measurements were conducted with a […] gap size at a temperature of 25 °C. All rheological measurements were done at a frequency, ω, of 10 rad/s with data collection every 2 s. Samples were left for 1 h at a steady strain sweep, γ, of 0.5% (within the linear viscoelastic regime for all sequences) for the gel samples to recover a steady state fibril network, as observed by a stabilization in the value of G′. Subsequently, frequency sweep (0.1–100 rad/s), strain sweep (γ = 0.01–100%), and flow curve (0.1–50 s^–1) experiments were conducted. A time experiment in the linear viscoelastic regime (10 rad/s, 0.5%) for a 50 min period after the flow curve was used to estimate the recovery time of the hydrogels.

Solubility in water = details: P7 and P8 not tested above 1.0 mM at pH 8

Row | SMILES | Gel robustness as noticed in handling ([1]; pD 8.0 hydrogels) | Fibril axis ratio ([2]; 2.0 mM) | Fibril cross-sectional area ([2]; 2.0 mM) | Fibril minor radius (minor semiaxis) ([2]; 2.0 mM) | Persistence of the β-sheet structure over time by FTIR [3] | Repeated dimension of broad SAXS peak at q = 0.172 Å^–1 ([2]; 2.0 mM) | Change of storage modulus G′ over one week [4] | G′ of P2 relative to P3 ([4]; after 1 week of incubation) | Recovery of initial G′ within 2 min after strain-induced loss of gel character [4] | Time to complete recovery of the initial G′ [4] | Strain above which gel character is lost (G″ > G′) [4] | Strain up to which the gel is linearly viscoelastic [4] | Slope of viscosity against shear rate (shear thinning) [4] | Angular frequency up to which G′ and G″ are frequency-independent [4] | Colloidal stability / phase separation of the hydrogel [1] | Periodic repeat distance from WAXS peak ([2]; WAXS, q = 1.3 Å^–1 (P0–P3) or 1.05 Å^–1 (P4–P6), 2.0 mM, pH 8.0, 21 °C) | Repeat distance of sharp SAXS peak at q = 0.305 Å^–1 [2] | Hydrogel formation ([1]; visual inspection, peptide in water/D2O, pH/pD 8.0, 2.0 mM (P7 1.0 mM), ambient temperature ca. 22 °C, up to 7 days) | Solubility in water (in words) (Solubility in water) | β-Sheet secondary structure (self-assembly) by FTIR amide I ([3]; pD 8.0, 2.0 mM (P7, P8 and F40FCN 1.0 mM))
1 | CC[C@H](C)[C@H](NC(=O)[C@H](CO)NC(=O)[C@H](Cc1ccccc1)NC(=O)[C@H](CO)NC(=O)CNC(C)=O)C(=O)N[C@@H](CCC(N)=O)C(=O)N[C@@H](Cc1ccc(O)cc1)C(=O)N[C@H](C(=O)N[C@@H](Cc1ccc(O)cc1)C(=O)N[C@@H](Cc1c[nH]cn1)C(=O)N[C@H](C(=O)N[C@@H](CC(=O)O)C(N)=O)C(C)C)[C@@H](C)O [P1] (Ac-GSFSIQYTYHVD-NH2) | less stable gel than P0, P2 and P3 | 2.5 | 17.7 nm^2 | 1.5 nm | is lost over time |  |  |  |  |  |  |  |  |  |  |  |  |  |  | 
2 | CC[C@H](C)[C@H](NC(=O)[C@H](CO)NC(=O)[C@H](Cc1ccccc1)NC(=O)[C@H](CO)NC(C)=O)C(=O)N[C@@H](CCC(N)=O)C(=O)N[C@@H](Cc1ccc(O)cc1)C(=O)N[C@H](C(=O)N[C@@H](Cc1ccc(O)cc1)C(=O)N[C@@H](Cc1c[nH]cn1)C(=O)N[C@H](C(=O)N[C@@H](CC(=O)O)C(N)=O)C(C)C)[C@@H](C)O [P2] (Ac-SFSIQYTYHVD-NH2) |  | 3.5 | 35.6 nm^2 | 1.8 nm |  | 3.7 nm | modestly increases | close to an order of magnitude higher than P3 | ca. 75% | 30 min | above 10 % strain | up to 2 % strain | ca. −1.1 | up to 20 rad/s |  |  |  |  |  | 
3 | CC[C@H](C)[C@H](NC(=O)[C@H](CO)NC(=O)[C@H](Cc1ccccc1)NC(C)=O)C(=O)N[C@@H](CCC(N)=O)C(=O)N[C@@H](Cc1ccc(O)cc1)C(=O)N[C@H](C(=O)N[C@@H](Cc1ccc(O)cc1)C(=O)N[C@@H](Cc1c[nH]cn1)C(=O)N[C@H](C(=O)N[C@@H](CC(=O)O)C(N)=O)C(C)C)[C@@H](C)O [P3] (Ac-FSIQYTYHVD-NH2) |  | 3.2 | 32.6 nm^2 | 1.8 nm |  | 3.7 nm | significantly increases |  | ca. 60% | 45 min | > 60 % strain | ≤ 10 % strain | ca. −1.1 | up to 20 rad/s |  |  |  |  |  | 
4 | CC[C@H](C)[C@H](NC(=O)[C@H](CO)NC(C)=O)C(=O)N[C@@H](CCC(N)=O)C(=O)N[C@@H](Cc1ccc(O)cc1)C(=O)N[C@H](C(=O)N[C@@H](Cc1ccc(O)cc1)C(=O)N[C@@H](Cc1c[nH]cn1)C(=O)N[C@H](C(=O)N[C@@H](CC(=O)O)C(N)=O)C(C)C)[C@@H](C)O [P4] (Ac-SIQYTYHVD-NH2) |  | 2.1 | 59.4 nm^2 | 3.0 nm and 3 nm | sheet structure is lost within 1 week |  |  |  |  |  |  |  |  |  | colloidally unstable and undergoes phase separation | 6.0 Å | 2.1 nm |  |  | 
5 | CC(=O)N[C@@H](CCC(N)=O)C(=O)N[C@@H](Cc1ccc(O)cc1)C(=O)N[C@H](C(=O)N[C@@H](Cc1ccc(O)cc1)C(=O)N[C@@H](Cc1c[nH]cn1)C(=O)N[C@H](C(=O)N[C@@H](CC(=O)O)C(N)=O)C(C)C)[C@@H](C)O [P6] (Ac-QYTYHVD-NH2) |  | 1.9 | 57.4 nm^2 | 3.1 nm |  |  |  |  |  |  |  |  |  |  | colloidally unstable and undergoes phase separation |  | 2.1 nm | forms a hydrogel |  | 
6 | CC(=O)N[C@H](C(=O)N[C@@H](Cc1ccc(O)cc1)C(=O)N[C@@H](Cc1c[nH]cn1)C(=O)N[C@H](C(=O)N[C@@H](CC(=O)O)C(N)=O)C(C)C)[C@@H](C)O [P8] (Ac-TYHVD-NH2) |  |  |  |  |  |  |  |  |  |  |  |  |  |  |  |  |  |  | low solubility | no sign of a β-sheet secondary structure; also recorded: unstructured
